Measurements: the NIST ThermoML archive (doi:10.1016/j.jct.2016.10.034)
Numbers after ± are expanded uncertainties.

Test: xn = mol fraction of the nth substance listed
Settings: 100 kPa, Liquid; for viscosity: Falling or rolling sphere viscometry; for mass density: Vibrating tube method

CC(=O)[O-].CC[N+]1(C)CCCC1 [1-ethyl-1-methylpyrrolidinium acetate] + O
Settings | mass density [kg/m3] | viscosity [mPa·s]
298.15 K, x1 = 0.1008 | 1046.6 ± 1.1 | 6.95 ± 0.7
298.15 K, x1 = 0.2083 | 1066.7 ± 1 | 16.9 ± 1.7
298.15 K, x1 = 0.3171 | 1070.7 ± 1 | 29 ± 2.9
298.15 K, x1 = 0.4126 | 1070.8 ± 1.1 | 41.1 ± 4.1
298.15 K, x1 = 0.481 | 1070.2 ± 1.1 | 50.9 ± 5.1
298.15 K, x1 = 0.5857 | 1069.2 ± 1.2 | 69.3 ± 7
298.15 K, x1 = 0.6728 | 1068.1 ± 1.4 | 88.3 ± 9
298.15 K, x1 = 0.766 | 1066.9 ± 1.6 | 116 ± 12
298.15 K, x1 = 0.8963 | 1065.4 ± 1.9 | 173 ± 19
303.15 K, x1 = 0.1008 | 1043.6 ± 1 | 5.96 ± 0.6
303.15 K, x1 = 0.2083 | 1063.6 ± 1 | 14.2 ± 1.4
303.15 K, x1 = 0.3171 | 1067.6 ± 1 | 24.2 ± 2.4
303.15 K, x1 = 0.4126 | 1067.8 ± 1.1 | 34.5 ± 3.5
303.15 K, x1 = 0.481 | 1067.2 ± 1.1 | 42.8 ± 4.3
303.15 K, x1 = 0.5857 | 1066.3 ± 1.2 | 57.2 ± 5.8
303.15 K, x1 = 0.6728 | 1065.3 ± 1.4 | 71.4 ± 7.2
303.15 K, x1 = 0.766 | 1064 ± 1.6 | 91.3 ± 9.4
303.15 K, x1 = 0.8963 | 1062.5 ± 1.9 | 134 ± 14
308.15 K, x1 = 0.1008 | 1040.7 ± 1 | 5.32 ± 0.53
308.15 K, x1 = 0.2083 | 1060.3 ± 1 | 11.9 ± 1.2
308.15 K, x1 = 0.3171 | 1064.5 ± 1 | 19.7 ± 2
308.15 K, x1 = 0.4126 | 1064.8 ± 1.1 | 28 ± 2.8
308.15 K, x1 = 0.481 | 1064.2 ± 1.1 | 35.1 ± 3.5
308.15 K, x1 = 0.5857 | 1063.1 ± 1.2 | 46.7 ± 4.7
308.15 K, x1 = 0.6728 | 1062.2 ± 1.4 | 57.6 ± 5.8
308.15 K, x1 = 0.766 | 1060.7 ± 1.5 | 74.2 ± 7.5
308.15 K, x1 = 0.8963 | 1059.4 ± 1.9 | 107 ± 11
313.15 K, x1 = 0.1008 | 1037.7 ± 1 | 4.77 ± 0.48
313.15 K, x1 = 0.2083 | 1057.1 ± 1 | 10.6 ± 1.1
313.15 K, x1 = 0.3171 | 1061.4 ± 1 | 16.9 ± 1.7
313.15 K, x1 = 0.4126 | 1061.8 ± 1.1 | 23.5 ± 2.4
313.15 K, x1 = 0.481 | 1061.3 ± 1.1 | 28.9 ± 2.9
313.15 K, x1 = 0.5857 | 1060.4 ± 1.2 | 38.7 ± 3.9
313.15 K, x1 = 0.6728 | 1059.4 ± 1.4 | 48.5 ± 4.9
313.15 K, x1 = 0.766 | 1057.9 ± 1.5 | 62.8 ± 6.4
313.15 K, x1 = 0.8963 | 1056.6 ± 1.9 | 88.5 ± 9.1
318.15 K, x1 = 0.1008 | 1034.6 ± 1 | 4.3 ± 0.43
318.15 K, x1 = 0.2083 | 1053.8 ± 1 | 9.09 ± 0.91
318.15 K, x1 = 0.3171 | 1058.2 ± 1 | 14 ± 1.4
318.15 K, x1 = 0.4126 | 1058.7 ± 1.1 | 19.7 ± 2
318.15 K, x1 = 0.481 | 1058.3 ± 1.1 | 23.6 ± 2.4
318.15 K, x1 = 0.5857 | 1057.5 ± 1.2 | 30.3 ± 3.1
318.15 K, x1 = 0.6728 | 1056.6 ± 1.4 | 38.4 ± 3.9
318.15 K, x1 = 0.766 | 1055 ± 1.5 | 51.4 ± 5.2
318.15 K, x1 = 0.8963 | 1053.7 ± 1.9 | 70.8 ± 7.2
323.15 K, x1 = 0.1008 | 1031.5 ± 1 | 3.87 ± 0.39
323.15 K, x1 = 0.2083 | 1050.5 ± 1 | 7.91 ± 0.79
323.15 K, x1 = 0.3171 | 1055.1 ± 1 | 11.6 ± 1.2
323.15 K, x1 = 0.4126 | 1055.7 ± 1.1 | 16 ± 1.6
323.15 K, x1 = 0.481 | 1055.3 ± 1.1 | 19.8 ± 2
323.15 K, x1 = 0.5857 | 1054.5 ± 1.2 | 26.2 ± 2.6
323.15 K, x1 = 0.6728 | 1053.6 ± 1.4 | 32.7 ± 3.3
323.15 K, x1 = 0.766 | 1052.2 ± 1.5 | 42.5 ± 4.3
323.15 K, x1 = 0.8963 | 1050.9 ± 1.8 | 58 ± 5.9
328.15 K, x1 = 0.1008 | 1028.3 ± 1 | 3.523 ± 0.35
328.15 K, x1 = 0.2083 | 1047.2 ± 1 | 6.81 ± 0.68
328.15 K, x1 = 0.3171 | 1051.9 ± 1 | 10 ± 1
328.15 K, x1 = 0.4126 | 1052.6 ± 1.1 | 13.5 ± 1.4
328.15 K, x1 = 0.481 | 1052.3 ± 1.1 | 15.8 ± 1.6
328.15 K, x1 = 0.5857 | 1051.6 ± 1.2 | 21.2 ± 2.1
328.15 K, x1 = 0.6728 | 1050.7 ± 1.4 | 28 ± 2.8
328.15 K, x1 = 0.766 | 1049.3 ± 1.5 | 35.2 ± 3.6
328.15 K, x1 = 0.8963 | 1048 ± 1.8 | 48 ± 4.9
333.15 K, x1 = 0.1008 | 1025.1 ± 1 | 3.21 ± 0.32
333.15 K, x1 = 0.2083 | 1043.8 ± 1 | 6.14 ± 0.62
333.15 K, x1 = 0.3171 | 1048.7 ± 1 | 8.67 ± 0.87
333.15 K, x1 = 0.4126 | 1049.5 ± 1.1 | 11.5 ± 1.2
333.15 K, x1 = 0.481 | 1049.3 ± 1.1 | 13.5 ± 1.4
333.15 K, x1 = 0.5857 | 1048.5 ± 1.2 | 18.1 ± 1.8
333.15 K, x1 = 0.6728 | 1047.7 ± 1.3 | 23.2 ± 2.3
333.15 K, x1 = 0.766 | 1046.2 ± 1.5 | 29.1 ± 2.9
333.15 K, x1 = 0.8963 | 1045 ± 1.8 | 39.5 ± 4
338.15 K, x1 = 0.1008 | 1021.8 ± 1 | 2.94 ± 0.3
338.15 K, x1 = 0.2083 | 1040.5 ± 1 | 5.49 ± 0.55
338.15 K, x1 = 0.3171 | 1045.5 ± 1 | 7.52 ± 0.76
338.15 K, x1 = 0.4126 | 1046.4 ± 1.1 | 9.88 ± 0.99
338.15 K, x1 = 0.481 | 1046.2 ± 1.1 | 11.6 ± 1.2
338.15 K, x1 = 0.5857 | 1045.6 ± 1.2 | 15.4 ± 1.6
338.15 K, x1 = 0.6728 | 1044.9 ± 1.3 | 19.8 ± 2
338.15 K, x1 = 0.766 | 1043.5 ± 1.5 | 24.6 ± 2.5
338.15 K, x1 = 0.8963 | 1042.3 ± 1.8 | 32.6 ± 3.3
343.15 K, x1 = 0.1008 | 1018.5 ± 1 | 2.65 ± 0.27
343.15 K, x1 = 0.2083 | 1037.1 ± 1 | 4.78 ± 0.48
343.15 K, x1 = 0.3171 | 1042.2 ± 1 | 6.72 ± 0.68
343.15 K, x1 = 0.4126 | 1043.3 ± 1.1 | 8.58 ± 0.86
343.15 K, x1 = 0.481 | 1043.2 ± 1.1 | 10.1 ± 1
343.15 K, x1 = 0.5857 | 1042.6 ± 1.2 | 13.1 ± 1.3
343.15 K, x1 = 0.6728 | 1041.9 ± 1.3 | 16.9 ± 1.7
343.15 K, x1 = 0.766 | 1040.5 ± 1.5 | 20.9 ± 2.1
343.15 K, x1 = 0.8963 | 1039.3 ± 1.8 | 27.2 ± 2.8
348.15 K, x1 = 0.1008 | 1015.2 ± 1.1 | 2.46 ± 0.25
348.15 K, x1 = 0.2083 | 1033.6 ± 1.1 | 4.38 ± 0.44
348.15 K, x1 = 0.3171 | 1039 ± 1 | 5.79 ± 0.58
348.15 K, x1 = 0.4126 | 1040.1 ± 1.1 | 7.52 ± 0.76
348.15 K, x1 = 0.481 | 1040.1 ± 1.1 | 8.82 ± 0.89
348.15 K, x1 = 0.5857 | 1039.7 ± 1.2 | 11.4 ± 1.1
348.15 K, x1 = 0.6728 | 1039 ± 1.3 | 14.6 ± 1.5
348.15 K, x1 = 0.766 | 1037.6 ± 1.5 | 17.3 ± 1.8
348.15 K, x1 = 0.8963 | 1036.7 ± 1.8 | 22.4 ± 2.3
